Data on 14 compounds can be found in patent US7687484B2, “Transporter enhanced corticosteroid activity” (priority 2006, dated 2010).

Usually IC50 stands for the midpoint of a concentration-inhibition curve.

Bounds are passed on as bounds.
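Throughout, for class: class 1 means high CBG binding and 2 intermediate and 3 low.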

In the first test the target is T1, Corticosteroid Binding Globulin (CBG), transcortin (Homo sapiens, UniProt P08185).
T1 sequence (P08185 23-405): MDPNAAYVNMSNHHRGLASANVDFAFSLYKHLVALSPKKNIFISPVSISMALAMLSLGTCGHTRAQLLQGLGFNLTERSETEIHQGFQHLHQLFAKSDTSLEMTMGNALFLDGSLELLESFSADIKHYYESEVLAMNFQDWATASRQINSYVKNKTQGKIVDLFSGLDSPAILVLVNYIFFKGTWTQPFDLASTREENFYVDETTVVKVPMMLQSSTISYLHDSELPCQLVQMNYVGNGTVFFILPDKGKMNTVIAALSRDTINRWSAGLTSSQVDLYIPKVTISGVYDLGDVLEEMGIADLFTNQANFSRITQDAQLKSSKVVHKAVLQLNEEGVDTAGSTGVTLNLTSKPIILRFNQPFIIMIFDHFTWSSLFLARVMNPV
Assay: not given
Conditions: CBG binding activity class; cited from earlier work.
In the case of `CC(=O)[C@H]1[C@H](C)C[C@H]2[C@@H]3CCC4=CC(=O)CC[C@]4(C)[C@H]3CC[C@@]21C` [16α-methylprogesterone], the Class was 1. `C[C@]12CCC(=O)C=C1CC[C@@H]1[C@@H]2CC[C@]2(C)C(=O)CC[C@@H]12` [4-androstenedione]: the Class is 3.

On to `C[C@]12CCC(=O)C=C1CC[C@@H]1[C@@H]2C(=O)C[C@@]2(C)[C@H]1CC[C@]2(O)C(=O)CO` [cortisone], for which the Class is recorded as 2. For `C[C@]12CC[C@H](O)CC1=CC[C@@H]1[C@@H]2CC[C@]2(C)C(=O)CC[C@@H]12` [dehydroepiandrosterone], the Class was 3. Regarding `C[C@]12CCC(O)C[C@@H]1CC[C@@H]1[C@@H]2CC[C@]2(C)[C@@H](O)CC[C@@H]12` (some centres unmarked) [androstanediol], the Class is on record as 3. In the case of `CC(=O)[C@@]1(O)[C@H](O)C[C@H]2[C@@H]3CCC4=CC(=O)CC[C@]4(C)[C@H]3CC[C@@]21C` [16α,17α-dihydroxyprogesterone], the Class is recorded as 2.

Consider `CC(=O)[C@@]1(O)CC[C@H]2[C@@H]3CCC4=CC(=O)CC[C@]4(C)[C@H]3CC[C@@]21C` [17α-hydroxyprogesterone], for which the Class is given as 1. `CC(=O)[C@H]1CC[C@H]2[C@@H]3CCC4=CC(=O)CC[C@]4(C)[C@H]3CC[C@]12C` [progesterone]: the Class is given as 1. On to `C[C@]12CCC(=O)C=C1CC[C@@H]1[C@@H]2[C@@H](O)C[C@]2(C=O)[C@@H](C(=O)CO)CC[C@@H]12` [aldosterone], for which the Class is 2.

Staying with this test, now noted: CBG binding affinity, literature data; cited from earlier work.
For `CC(=O)[C@H]1[C@H](C)C[C@H]2[C@@H]3CCC4=CC(=O)CC[C@]4(C)[C@H]3CC[C@@]21C` [16α-methylprogesterone], the “Log 1/K” value is −7.120. With `C[C@]12CCC(=O)C=C1CC[C@@H]1[C@@H]2CC[C@]2(C)C(=O)CC[C@@H]12` [4-androstenedione], the “Log 1/K” value is recorded as −5.763. As for `C[C@]12CCC(=O)C=C1CC[C@@H]1[C@@H]2C(=O)C[C@@]2(C)[C@H]1CC[C@]2(O)C(=O)CO` [cortisone], the “Log 1/K” value is −6.892. On to `C[C@]12CC[C@H](O)CC1=CC[C@@H]1[C@@H]2CC[C@]2(C)C(=O)CC[C@@H]12` [dehydroepiandrosterone], for which the “Log 1/K” value is on record as −5.000. Regarding `C[C@]12CCC(O)C[C@@H]1CC[C@@H]1[C@@H]2CC[C@]2(C)[C@@H](O)CC[C@@H]12` (some centres unmarked) [androstanediol], the “Log 1/K” value is on record as −5.000. With `CC(=O)[C@@]1(O)[C@H](O)C[C@H]2[C@@H]3CCC4=CC(=O)CC[C@]4(C)[C@H]3CC[C@@]21C` [16α,17α-dihydroxyprogesterone], the “Log 1/K” value is recorded as −6.247.

Take `CC(=O)[C@@]1(O)CC[C@H]2[C@@H]3CCC4=CC(=O)CC[C@]4(C)[C@H]3CC[C@@]21C` [17α-hydroxyprogesterone]: the “Log 1/K” value is −7.740. For `CC(=O)[C@H]1CC[C@H]2[C@@H]3CCC4=CC(=O)CC[C@]4(C)[C@H]3CC[C@]12C` [progesterone], the “Log 1/K” value is −7.380. Take `C[C@]12CCC(=O)C=C1CC[C@@H]1[C@@H]2[C@@H](O)C[C@]2(C=O)[C@@H](C(=O)CO)CC[C@@H]12` [aldosterone]: the “Log 1/K” value was −6.279.

For a further test, the target named is T2, transcortin (CBG) (Homo sapiens, UniProt P08185).
T2 construct: from tissue; host or cells: plasma from venous blood of healthy volunteers, charcoal-treated, diluted 100-fold
T2 sequence (P08185 23-405): T1 sequence (P08185 23-405)
Kind of test: Binding of corticosteroids to transcortin: 3H-cortisol competition in charcoal-treated diluted plasma. To be noted: 3 nM 3H-cortisol, 1 hour on ice, plasma diluted 100-fold; read-out: IC50-values (nM) average ± SEM (n). The protocol: Experimental procedure: Venous blood was collected from healthy volunteers into heparin-containing tubes (5 Us/100 ml serum) and cells were separated from plasma by centrifugation (1500 g for 15 min). […] Charcoal-treated plasma was diluted 100-fold with binding buffer (10 mM Tris-HCl; 2 mM DTT (dithiotreitol); 1.5 mM EDTA; 0.02 M Na2MoO4; 10% Glycerol; pH 7.4) and was stored aliquoted at −80° C. […] The assay ingredients were mixed and the tubes were incubated for 1 hour on ice. At the end of the incubation, 0.2 ml of charcoal suspension (0.5% Norit A and 0.05% BSA) was added to each tube. The tubes were briefly agitated and incubated for an additional 10 min at 0° C. They were then centrifuged for 10 min at 15 000 g, and the same aliquots from the clear supernatants were quantitatively decanted into counting vials and combined with 3 ml of toluene-based scintillation fluid. […] Specific binding and IC50-values were calculated.
In the case of `C[C@]12C=CC(=O)C=C1CCC1C2C(=O)C[C@@]2(C)C1CC[C@]2(O)C(=O)CO` (some centres unmarked) [Prednisone, prednisone], the IC50 stood at 36 ± 11 nM. Turning to `COC(=O)[C@@]1(O)CCC2C3CCC4=CC(=O)CC[C@]4(C)C3[C@@H](O)C[C@@]21C` (some centres unmarked) [CA-Me GYKI-25806], the 50% inhibitory concentration (IC50) is 5.9 ± 1.4 nM.

The same test, now with this note: estimated; unpublished results Bodor, Kurucz 2006; read-out: CBG Est. IC50.
As for `C[C@]12C=CC(=O)C=C1CC[C@@H]1[C@@H]2[C@@H](O)C[C@@]2(C)[C@H]1C[C@H]1O[C@@H](C3CCCCC3)O[C@]12C(=O)CO` [Ciclesonide, act. metab.], the IC50 is over 10000 nM. Still for that read-out and setting: the result for `C[C@@H]1C[C@H]2[C@@H]3CCC4=CC(=O)C=C[C@]4(C)[C@@]3(Cl)[C@@H](O)C[C@]2(C)[C@@]1(OC(=O)c1ccco1)C(=O)CCl` [Mometasone furoate] reads over 10000 nM; that for `CCCC1O[C@@H]2C[C@H]3[C@@H]4CCC5=CC(=O)C=C[C@]5(C)[C@H]4[C@@H](O)C[C@]3(C)[C@]2(C(=O)CO)O1` (some centres unmarked) [budesonide (BUD), budesonide], over 10000 nM.
